Test results: paper PMC5384453, “A multi-functional PEGylated gold(III) compound: potent anti-cancer properties and self-assembly into nanostructures for drug co-delivery” (Chemical Science, 2016)

How the values were obtained:
[1] = mouse
Procedure: The anti-tumor experiments using mice were approved by the animal ethics committees of Jinan University and The University of Hong Kong. […]
point of tumor growth inhibition study, the mice treated with complex 1, 3 and Au1a, respectively, were sacrificed and tissues including liver, spleen, lung, kidney and heart were harvested. The tissues were digested with 10% HCl in concentrated HNO3 (0.1 g of tissue/1 mL). The solution mixture was heated at 60 °C for 15 h, and then diluted 50 times by ultra-pure water for ICP-MS analysis.
Determination of in vivo biodistribution of complex 1, 3 and Au1a by ICP-MS.
Nude mice bearing HCT116 xenografts were treated with 1 (13 mg/kg), or equal molar amount of Au1a (2 mg/kg) or 3 (2 mg/kg) through intravenous injection. After 24 h of the injection, the mice were sacrificed and tissues from tumor, liver, spleen, lung, kidney and heart were harvested. The tissues were digested with 10% HCl in concentrated HNO3 (0.1 g of tissue/1 mL). The solution mixture was heated at 60 °C for 15 h, and then diluted 50 times by ultra-pure water for ICP-MS analysis.
Analysis of tumor tissue from mice treated with complexes 1 by UPLC-QTOF-MS. At the end point of tumor growth inhibition study, the mice treated with solvent control or complex 1 were sacrificed and the tumor tissues were harvested, followed by homogenization in 50% ice-cold acetonitrile (0.1 g/300 µL). […]

NCM460 cells [2] = experiment: Co-culture model of HCT116 and NCM460, FITC-Annexin V flow cytometry; type: cell-based, human; details: CMF2HC-stained NCM460 in co-culture with HCT116, 2 μM, 24 h
Procedure: (§1) To further verify the ability of 1 to selectively induce apoptosis of HCT116 cells over NCM460 cells, HCT116 and NCM460 cells were co-cultured and incubated with 1 for 24 h, and then stained with FITC-Annexin V and propidium iodide. In order to differentiate the two different cell lines, NCM460 cells were pre-treated with blue-emissive CMF2HC dye prior to its co-culture with HCT116 cells. […] In a parallel experiment, co-cultured cells treated with 1 for 24 h and stained with FITC-Annexin V and propidium iodide were imaged by fluorescence microscopy (Fig. 4a). Green and red fluorescence were primarily observed in cells without showing blue luminescence, i.e. HCT116 cells. […] The results of both the fluorescence microscopy and flow cytometry support the high selectivity of 1 on killing colon cancer cells in the co-culture model of cancer and normal cells.
(§2) atmosphere of 5% CO2. After reaching 80% confluency, the culture medium was
(§3) of 5% CO2 for 45 min. The solution was then removed. The stained NCM460 cells
(§4) the procedure described above.
(§5) right fore of BALB/c nude mice. When the tumor volume reached 70 mm3 after […]

HCT116 cells [3] = experiment: as above; type: cell-based, human; details: HCT116 in co-culture with CMF2HC-stained NCM460, 2 μM, 24 h
Procedure: as §1, §2, §3, §4, §5

HCT116 cells [4] = experiment: Flow cytometric analysis of apoptosis with propidium iodide co-staining (Fig. S14, S15); type: cell-based, human; details: HCT116, 2 μM
Procedure: with gold(III) complexes and FITC-annexin V staining. HCT116 (1×10 5 cells) and […]
annexin-binding buffer solution. The cells were then incubated with FITC-annexin V […]
at room temperature in dark for 15 min. The solution was then removed, and the cells were washed with annexin-binding buffer solution. Fluorescence images were then […]
in ice and analyzed by flow cytometry immediately. […]
staining and flow cytometry. […]
atmosphere of 5% CO2. After reaching 80% confluency, the culture medium was […]
of 5% CO2 for 45 min. The solution was then removed. The stained NCM460 cells […]
the procedure described above. […]
as §5
propidium iodide staining. (b) Flow cytometric analysis of NCM460 […]
annexin V and propidium iodide staining. (c) Flow cytometric analysis […]
annexin V and propidium iodide staining.

NCM460 cells [5] = experiment: as above; details: NCM460, 2 μM
Procedure: Analysis of induction of apoptosis in HCT116 and NCM460 cells after incubation
with gold(III) complexes and FITC-annexin V staining by flow cytometry.
dishes respectively. The cells were incubated at 37 °C under an atmosphere of 5%
CO2 for 48 h. The culture medium was then removed, washed with PBS solution. The
cells were then incubated with culture medium containing nanostructures of 1 (2 µM)
or Au1a (2 µM; with 1 vol% DMSO) at 37 °C under an atmosphere of 5% CO2 for 24
h. All the cells were harvested, and washed with PBS solution and annexin-binding
buffer solution. The cells were collected by centrifugation at 2000 rpm for 5 min, and
re-dispersed in annexin-binding buffer solution with cell concentration of ca. 110 6
cells/mL. FITC- Annexin V (5 µL) was added to an aliquot of the cell suspension
(100 µL), and the cells were incubated at room temperature in dark for 15 min. The
solution mixture was then diluted by annexin-binding buffer solution (400 µL), kept
with gold(III) complexes by CellEvent Caspase-3/7 Green Detection Reagent
staining and flow cytometry. The procedure is similar to that using FITC-Annexin V
staining, except that the harvested cells were re-dispersed in PBS solution with 2%
BSA (w/w; 100 µL) and incubated with CellEvent Caspase-3/7 Green Detection
Reagent (2.5 µM) at 37 °C for 30 min, and subsequently stained with propidium […]

Row | Compound | hydrolysis in vivo (species found in tumor tissues) [1] | cells undergoing apoptosis (FITC-Annexin V, corrected) (NCM460 cells [2]) [%] | cells undergoing apoptosis (FITC-Annexin V, corrected) (HCT116 cells [3]) [%] | apoptotic cells (Q4 region, corrected) (HCT116 cells [4]; 24 h) [%] | late apoptotic events (Q2 region, corrected) (HCT116 cells [4]; 24 h) [%] | apoptotic cells (Q4 region, corrected) (HCT116 cells [4]; 36 h) [%] | late apoptotic events (Q2 region, corrected) (HCT116 cells [4]; 36 h) [%] | viability (Q3 region, corrected) (NCM460 cells [5]; 24 h) [%] | viability (Q3 region, corrected) (NCM460 cells [5]; 36 h) [%]
1 | [Au(TPP–COO–PEG5000–OCH3)]Cl [Compound 1] | [Au(TPP–COOH)]^+ was found in the UPLC-QTOF-MS of tumor tissues | 1.87 | 20.6 | 35.83 | 1.96 | 43.83 | 10.6 |  | 
2 | C1=Cc2nc1c(-c1ccccc1)c1ccc([n-]1)c(-c1ccccc1)c1nc(c(-c3ccccc3)c3ccc([n-]3)c2-c2ccccc2)C=C1.[Au+3].[Cl-] [Au1a, [Au(TPP)]Cl, reference compound] |  |  |  |  |  |  |  | 61.14 | 56.64
